Assay results taken from the NIST ThermoML archive (doi:10.1016/j.jct.2018.02.018).
± gives the expanded uncertainty stated by the source.

Columns and labels:
[1] = refractive index (Na D-line) (dimensionless); conditions: 100 kPa, Liquid, Standard Abbe refractometry
[2] = 100 kPa, Liquid; for speed of sound: Frequency=3 MHz, Single path-length method; for mass density: Vibrating tube method

Q: Which results are given for `CN(C)CCOCCO` [2-(2-dimethylaminoethoxy)ethanol]?
A: refractive index ([1]; 293.15 K): 1.442 ± 0.006; refractive index ([1]; 298.15 K): 1.44 ± 0.006; refractive index ([1]; 303.15 K): 1.438 ± 0.006; refractive index ([1]; 313.15 K): 1.435 ± 0.006; refractive index ([1]; 323.15 K): 1.431 ± 0.006; speed of sound ([2]; 293.15 K): 1403.6 ± 2.4 m/s; mass density ([2]; 293.15 K): 954 ± 4 kg/m3; speed of sound ([2]; 298.15 K): 1386.7 ± 2.4 m/s; mass density ([2]; 298.15 K): 950 ± 4 kg/m3; speed of sound ([2]; 303.15 K): 1369.9 ± 2.4 m/s; mass density ([2]; 303.15 K): 946 ± 4 kg/m3; speed of sound ([2]; 313.15 K): 1336.8 ± 2.4 m/s; mass density ([2]; 313.15 K): 938 ± 4 kg/m3; speed of sound ([2]; 323.15 K): 1303.9 ± 2.4 m/s; mass density ([2]; 323.15 K): 930 ± 4 kg/m3

Q: What does the source list for `NCCO` [2-aminoethan-1-ol]?
A: refractive index ([1]; 293.15 K): 1.455 ± 0.006; refractive index ([1]; 298.15 K): 1.453 ± 0.006; refractive index ([1]; 303.15 K): 1.451 ± 0.006; refractive index ([1]; 313.15 K): 1.447 ± 0.006; refractive index ([1]; 323.15 K): 1.443 ± 0.006; speed of sound ([2]; 293.15 K): 1734.2 ± 1.7 m/s; mass density ([2]; 293.15 K): 1016 ± 4 kg/m3; speed of sound ([2]; 298.15 K): 1718.3 ± 1.7 m/s; mass density ([2]; 298.15 K): 1012 ± 4 kg/m3; speed of sound ([2]; 303.15 K): 1702.2 ± 1.7 m/s; mass density ([2]; 303.15 K): 1008 ± 4 kg/m3; speed of sound ([2]; 313.15 K): 1669.4 ± 1.7 m/s; mass density ([2]; 313.15 K): 1000 ± 4 kg/m3; speed of sound ([2]; 323.15 K): 1637.3 ± 1.7 m/s; mass density ([2]; 323.15 K): 992 ± 4 kg/m3

Q: For `CN(C)CCCO` [3-dimethylamino-1-propanol], which refractive index ([1]; 293.15 K) is on record?
A: 1.437 ± 0.006

Q: And the refractive index ([1]; 298.15 K)?
A: 1.435 ± 0.006

Q: And the refractive index ([1]; 303.15 K)?
A: 1.433 ± 0.006

Q: And the refractive index ([1]; 313.15 K)?
A: 1.429 ± 0.006

Q: And the refractive index ([1]; 323.15 K)?
A: 1.425 ± 0.006

Q: What about the speed of sound ([2]; 293.15 K) of the same compound?
A: 1395.8 ± 1.7 m/s

Q: What about the mass density ([2]; 293.15 K) of the same compound?
A: 885 ± 4 kg/m3

Q: What about the speed of sound ([2]; 298.15 K) of the same compound?
A: 1377.3 ± 1.7 m/s

Q: And the mass density ([2]; 298.15 K)?
A: 881 ± 4 kg/m3

Q: What about the speed of sound ([2]; 303.15 K) of the same compound?
A: 1358.8 ± 1.7 m/s

Q: And the mass density ([2]; 303.15 K)?
A: 877 ± 4 kg/m3

Q: What about the speed of sound ([2]; 313.15 K) of the same compound?
A: 1322.1 ± 1.7 m/s

Q: And the mass density ([2]; 313.15 K)?
A: 869 ± 4 kg/m3

Q: And the speed of sound ([2]; 323.15 K)?
A: 1285.7 ± 1.7 m/s

Q: And the mass density ([2]; 323.15 K)?
A: 860 ± 4 kg/m3

Q: Which refractive index ([1]; 293.15 K) does the source give for `NCc1ccccc1` [benzylamine] here?
A: 1.544 ± 0.006

Q: What about the refractive index ([1]; 298.15 K) of the same compound?
A: 1.542 ± 0.006

Q: What about the refractive index ([1]; 303.15 K) of the same compound?
A: 1.539 ± 0.006

Q: And the refractive index ([1]; 313.15 K)?
A: 1.534 ± 0.006

Q: And the refractive index ([1]; 323.15 K)?
A: 1.529 ± 0.006

Q: And the speed of sound ([2]; 293.15 K)?
A: 1579.7 ± 1.7 m/s

Q: What about the mass density ([2]; 293.15 K) of the same compound?
A: 983 ± 4 kg/m3

Q: And the speed of sound ([2]; 298.15 K)?
A: 1560.1 ± 1.7 m/s

Q: What about the mass density ([2]; 298.15 K) of the same compound?
A: 978 ± 4 kg/m3

Q: And the speed of sound ([2]; 303.15 K)?
A: 1540.2 ± 1.7 m/s

Q: And the mass density ([2]; 303.15 K)?
A: 974 ± 4 kg/m3

Q: What about the speed of sound ([2]; 313.15 K) of the same compound?
A: 1500 ± 1.7 m/s

Q: And the mass density ([2]; 313.15 K)?
A: 965 ± 4 kg/m3

Q: What about the speed of sound ([2]; 323.15 K) of the same compound?
A: 1461.1 ± 1.7 m/s

Q: And the mass density ([2]; 323.15 K)?
A: 957 ± 4 kg/m3
